Where “and” joins values, the source holds several entries; their conditions need not be identical. Identical values can stand only once. Entries after “also recorded” stand apart in the source; their conditions may differ.
Tests used:
[1] = biological target: T1, Lipase and colipase, purified from human pancreatic gland (Homo sapiens, UniProt P04118+P16233); test: Determination of lipolysis by colipase/lipase (pH-stat, tributyrine emulsion with NaTDC); format: biochemical
T1 construct: Lipase, Purified from Human Pancreatic Gland; Colipase, Purified from Human Pancreatic Gland; from tissue; host or cells: human pancreatic gland
T1 sequence (P16233 17-465): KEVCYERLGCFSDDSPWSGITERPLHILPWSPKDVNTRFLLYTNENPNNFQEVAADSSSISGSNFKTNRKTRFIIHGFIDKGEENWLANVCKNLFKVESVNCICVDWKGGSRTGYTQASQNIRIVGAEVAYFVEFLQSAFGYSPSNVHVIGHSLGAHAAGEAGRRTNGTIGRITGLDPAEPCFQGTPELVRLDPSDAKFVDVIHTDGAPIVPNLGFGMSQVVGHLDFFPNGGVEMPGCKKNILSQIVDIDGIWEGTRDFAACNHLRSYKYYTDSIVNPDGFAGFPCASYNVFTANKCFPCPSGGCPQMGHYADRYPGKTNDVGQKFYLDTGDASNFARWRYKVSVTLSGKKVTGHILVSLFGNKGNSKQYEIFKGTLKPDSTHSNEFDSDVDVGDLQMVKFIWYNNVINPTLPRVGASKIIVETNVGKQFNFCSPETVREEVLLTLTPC
T1 sequence (P04118 23-112): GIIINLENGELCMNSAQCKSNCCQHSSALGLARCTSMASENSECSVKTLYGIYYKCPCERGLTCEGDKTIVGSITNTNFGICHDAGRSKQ
Description: Determination of Lipolysis by Colipase/Lipase
The most important enzyme in the gastro-intestinal tract being responsible for the hydrolysis of lipids/fats in the gastro-intestinal tract is lipase, pancreatic lipase, together with its protein cofactor colipase. These are two proteins, which are secreted from the pancreatic gland. […] The colipase binds to lipase in a molar 1:1 complex and then moves the complex to the triglyceride surface. In the binding between lipase and colipase hydrogen bonds are present, between arg38 of the colipase and ser343 of the lipase and from glu15 of the colipase and the asn241 of the lipase molecules. In the binding of colipase to the substrate (the lipids/fat) there are both hydrophobic bonds as well as ion-ion bonds present. By an isolated lack of colipase it has been shown that colipase has a decisive role for the lipolysis in the gastro-intestinal tract of humans. Pure lipase and colipase have been produced in accordance with the following.
Lipase, Purified from Human Pancreatic Gland
Colipase, Purified from Human Pancreatic Gland
0.5 ml of tributyrine is mixed with 15 ml of a buffer containing 1 mM CaCl2, 150 mM NaCl, 2 mM tris-maleate, pH 7.0 and 4 mM NaTDC (sodium taurodeoxycholate). An emulsion is obtained by continuous stirring. pH is titrated by means of a pH-state, where 0.1 N NaOH is added automatically to keep an constant pH. 10 μl of lipase is added from a stock solution containing 70 units of lipase/ml, followed by 10 μl of colipase from a stock solution containing 1 mg colipase/ml. An activity is registered which is determined to be 100%. An addition of an inhibitor is then made. A new assay is used for every concentration, prepared in the same way. The inhibition is registered as percentage of control. A dose-response plot is obtained for the compounds having an inhibiting ability.

[2] = Evaluation of food intake and body weight, oral gavage for 5 days; format: in vivo, female Sprague-Dawley rats
Protocol: (§1) Female female Sprague-Dawley rats were used for all experiments. Rats were housed in a temperature-controlled room (22±1° C.) under a 12-h light (6:00-18:00)/12-h cycle, given free access to water, and fed an libitum on a standard chow unless otherwise stated for a high-fat diet experiment. All procedures using animals were approved by the local ethics committee and followed the guidelines for experiments in animals (European Economic Community Council Directive 86/609/EEC).
For measurement of food consumption rats were individually housed in cage and given a high-fat diet for a week before the beginning of the experiment. […] Rat with as libitum access to high-fat food were orally given dimethylaminoethyl dodecyl ether (37.5 or 50 μl dissolved in 1% methycellulose) through a gastric gavage or 1% methyl cellulose at the onset of the dark cycle (18:00) and food intake was measured at 15 h following dimethylaminoethyl dodecyl ether administration from pre-weighed portions of food dispensed from were cage top. Cages were carefully monitored for evidence of food spillage or grinding.

[3] = In vivo Intralipid feeding test: free fatty acids and triglycerides in blood serum; set-up: species or system Sprague-Dawley rats
Protocol: Sprague-Dawley rats weighing 200-220 g, stored in cages using a 12 hours of light/12 hours of darkness cycle were used. They had free admittance to food and water prior to the test. The day prior a test the rats were fasted, and were anaesthetised in the morning using diethyl ether. 1 ml of Intralipid (200 mg/ml) with and without inhibitor was fed to the rats by means of a syringe through the mouth and ending in the stomach. Blood samples were taken at time 0, prior to the test start, and then after 30, 60, 120 and 180 minutes after feeding with Intralipid. After centrifugation, serum was separated and stored at −20° C. for analysis. Analyses of free fatty acids, triglycerides and total cholesterol were made. The test has been repeated, also using different dosages of the inhibitors tested.

[4] = Blood lipids analysis after 5 days of oral administration; format: in vivo, female Sprague-Dawley rats; settings: 50 μl orally for 5 days
Protocol: as §1
Blood was drawn in rats from the intra-orbital bullar plexus under anaesthesia and collected in ice-cold tubes. Serum was obtained by centrifugation at 3000 g for 15 min at 4° C. […] Plasma triglycerides was determined with an Sigma diagnostics kit. Plasma fatty acids were measured by NEFAC kit (Wako chemicals GmbH, Neuss, Germany). Plasma PYY (3-36) and leptin were measured with the PYY Enzyme Immunossay kit and leptin Enzyme Immunossay (Phoenix Pharmaceuticals, USA)

SMILES: CCCCCCCCCCCCOCCN(C)C [dimethylaminoethyl dodecyl ether]
- Activity Inhibitor ([1]; amount of inhibitor 0.97 μmol, control activity 0.313): 0.237 µmol/min
- Activity Inhibitor ([1]; amount of inhibitor 1.95 μmol, control activity 0.301): 0.204 µmol/min
- Activity Inhibitor ([1]; amount of inhibitor 3.89 μmol, control activity 0.308): 0.127 µmol/min
- Activity Inhibitor ([1]; amount of inhibitor 6.81 μmol, control activity 0.319): 0.069 µmol/min
- Activity Inhibitor ([1]; amount of inhibitor 9.73 μmol, control activity 0.327): 0.033 µmol/min
- Activity Inhibitor ([1]; amount of inhibitor 14.59 μmol, control activity 0.328): 0.013 µmol/min
- Activity Inhibitor ([1]; amount of inhibitor 19.46 μmol, control activity 0.332): 0 µmol/min
- Food intake vs vehicle ([2]; rats fed high-fat diet, 25 μl orally): no food intake inhibition
- Food intake vs vehicle ([2]; rats fed high-fat diet, 37.5 μl by gastric gavage): a trend towards reduced food intake was observed, however this did not reach statistic significance
- Food intake vs vehicle ([2]; rats fed high-fat diet, 50 μl by gastric gavage, up to 5 days): highly significant reduction in food intake; also recorded: significantly inhibited
- Body weight vs non-treated group ([2]; rats fed high-fat diet, 50 μl daily for 5 days): decreased body weight; also recorded: significantly loss of body weight
- Food intake vs controls ([2]; rats fed low-fat diet, 37.5 and 50 μl, 5 testing days): failed to decrease food intake
- Triglycerides ([3]; rat blood serum, 0 min (prior to Intralipid feeding)): 103 mg/dL
- Free fatty acids ([3]; rat blood serum, 0 min (prior to Intralipid feeding), listed as Compound C12): 0.56 mmol and 0.57 mmol
- Triglycerides ([3]; rat blood serum, 30 min after 1 ml Intralipid with inhibitor): 95 mg/dL
- Free fatty acids ([3]; rat blood serum, 30 min after 1 ml Intralipid with inhibitor, listed as Compound C12): 0.63 mmol and 0.67 mmol
- Triglycerides ([3]; rat blood serum, 60 min after 1 ml Intralipid with inhibitor): 98 mg/dL
- Free fatty acids ([3]; rat blood serum, 60 min after 1 ml Intralipid with inhibitor, listed as Compound C12): 0.70 mmol and 0.72 mmol
- Triglycerides ([3]; rat blood serum, 120 min after 1 ml Intralipid with inhibitor): 95 mg/dL
- Free fatty acids ([3]; rat blood serum, 120 min after 1 ml Intralipid with inhibitor, listed as Compound C12): 0.60 mmol and 0.72 mmol
- Triglycerides ([3]; rat blood serum, 180 min after 1 ml Intralipid with inhibitor): 77 mg/dL
- Free fatty acids ([3]; rat blood serum, 180 min after 1 ml Intralipid with inhibitor, listed as Compound C12): 0.62 mmol and 0.74 mmol
- Free fatty acids (% of control) ([3]; rat, dose of active compound 10 μg): 83.7 % of control
- Free fatty acids ([3]; rat, dose of active compound 10 μg, dose 0: 1.45): 1.25 mM
- Free fatty acids (% of control) ([3]; rat, dose of active compound 50 μg): 56.1 % of control
- Free fatty acids ([3]; rat, dose of active compound 50 μg, dose 0: 1.45): 0.83 mM
- Free fatty acids (% of control) ([3]; rat, dose of active compound 100 μg): 57.4 % of control
- Free fatty acids ([3]; rat, dose of active compound 100 μg, dose 0: 1.45): 0.85 mM
- Free fatty acids (% of control) ([3]; rat, dose of active compound 200 μg): 74.3 % of control
- Free fatty acids ([3]; rat, dose of active compound 200 μg, dose 0: 1.45): 1.1 mM
- Serum (plasma) cholesterol level vs vehicle [4]: no effect; also recorded: no difference
- Serum fatty acids level vs vehicle [4]: decreased serum triglyceride and fatty acids, but this was not statistic significance; also recorded: decreased
- Serum triglyceride level vs vehicle [4]: decreased serum triglyceride and fatty acids, but this was not statistic significance; also recorded: decreased

— patent US7425577B2, “Lipase-colipase inhibitor” (Forskarpatent 1 SYD AB, priority 2003, dated 2008)
